Measurements: US20110098219A1, “System for Curing Hepatic Cancer with Leptin” (KAOHSIUNG MEDICAL UNIVERSITY, priority 2009, published 2011)

Key:
[1] = tested on: epithelial cell line of normal liver (THLE-3); assay: XTT assay, survival of normal liver epithelial cell line; type: cell-based; settings: THLE-3, FIG. 17A
Procedure: Please refer to FIG. 17A to FIG. 18B, which are views showing epithelial cell line of normal liver treated with MPA+leptin for 24 hours and 48 hours respectively; and views showing STAT3- and MAPK-related signal paths after treating cell line of normal liver with MPA+leptin. As shown in the figures, after epithelial cell line of normal liver (THLE-3) is applied with MPA+leptin for […], MPA+leptin's effect on cell growth (i.e. survival rate) is analyzed through XTT assay. […] Besides, in FIG. 18A and FIG. 18B, protein expressions for STAT- and MAPK-related signal paths are analyzed.

[2] = target: T1, leptin receptor and progesterone receptor (Homo sapiens, UniProt P06401); assay: Immunoprecipitation and immunofluorescent staining, receptor interaction; type: cell-based
T1 construct: endogenous in cells
T1 sequence (P06401 1-933): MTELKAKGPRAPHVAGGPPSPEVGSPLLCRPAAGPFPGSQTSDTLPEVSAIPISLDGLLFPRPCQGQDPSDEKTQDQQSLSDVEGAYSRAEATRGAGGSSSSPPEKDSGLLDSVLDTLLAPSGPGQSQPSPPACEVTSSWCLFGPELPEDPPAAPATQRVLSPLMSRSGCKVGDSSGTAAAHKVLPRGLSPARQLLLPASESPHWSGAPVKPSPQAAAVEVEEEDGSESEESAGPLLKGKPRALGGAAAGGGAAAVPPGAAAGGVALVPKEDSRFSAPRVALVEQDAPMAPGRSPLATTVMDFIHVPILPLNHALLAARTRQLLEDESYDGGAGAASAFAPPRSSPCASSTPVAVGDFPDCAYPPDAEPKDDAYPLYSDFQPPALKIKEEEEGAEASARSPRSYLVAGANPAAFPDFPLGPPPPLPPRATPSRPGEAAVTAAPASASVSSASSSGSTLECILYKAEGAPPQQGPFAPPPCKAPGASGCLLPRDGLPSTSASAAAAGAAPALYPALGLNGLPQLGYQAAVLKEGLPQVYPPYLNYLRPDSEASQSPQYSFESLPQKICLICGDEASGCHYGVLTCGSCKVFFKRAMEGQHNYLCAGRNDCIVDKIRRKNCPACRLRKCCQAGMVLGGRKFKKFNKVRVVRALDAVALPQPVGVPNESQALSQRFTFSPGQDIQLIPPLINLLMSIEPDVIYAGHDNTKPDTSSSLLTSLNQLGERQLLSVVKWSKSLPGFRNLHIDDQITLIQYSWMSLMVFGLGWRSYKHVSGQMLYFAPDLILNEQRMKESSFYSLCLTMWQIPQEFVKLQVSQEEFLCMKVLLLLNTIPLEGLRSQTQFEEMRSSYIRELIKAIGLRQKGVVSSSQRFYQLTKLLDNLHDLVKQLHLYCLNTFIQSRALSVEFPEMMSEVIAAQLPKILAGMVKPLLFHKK
T1 sequence (P48357 22-1165 partner): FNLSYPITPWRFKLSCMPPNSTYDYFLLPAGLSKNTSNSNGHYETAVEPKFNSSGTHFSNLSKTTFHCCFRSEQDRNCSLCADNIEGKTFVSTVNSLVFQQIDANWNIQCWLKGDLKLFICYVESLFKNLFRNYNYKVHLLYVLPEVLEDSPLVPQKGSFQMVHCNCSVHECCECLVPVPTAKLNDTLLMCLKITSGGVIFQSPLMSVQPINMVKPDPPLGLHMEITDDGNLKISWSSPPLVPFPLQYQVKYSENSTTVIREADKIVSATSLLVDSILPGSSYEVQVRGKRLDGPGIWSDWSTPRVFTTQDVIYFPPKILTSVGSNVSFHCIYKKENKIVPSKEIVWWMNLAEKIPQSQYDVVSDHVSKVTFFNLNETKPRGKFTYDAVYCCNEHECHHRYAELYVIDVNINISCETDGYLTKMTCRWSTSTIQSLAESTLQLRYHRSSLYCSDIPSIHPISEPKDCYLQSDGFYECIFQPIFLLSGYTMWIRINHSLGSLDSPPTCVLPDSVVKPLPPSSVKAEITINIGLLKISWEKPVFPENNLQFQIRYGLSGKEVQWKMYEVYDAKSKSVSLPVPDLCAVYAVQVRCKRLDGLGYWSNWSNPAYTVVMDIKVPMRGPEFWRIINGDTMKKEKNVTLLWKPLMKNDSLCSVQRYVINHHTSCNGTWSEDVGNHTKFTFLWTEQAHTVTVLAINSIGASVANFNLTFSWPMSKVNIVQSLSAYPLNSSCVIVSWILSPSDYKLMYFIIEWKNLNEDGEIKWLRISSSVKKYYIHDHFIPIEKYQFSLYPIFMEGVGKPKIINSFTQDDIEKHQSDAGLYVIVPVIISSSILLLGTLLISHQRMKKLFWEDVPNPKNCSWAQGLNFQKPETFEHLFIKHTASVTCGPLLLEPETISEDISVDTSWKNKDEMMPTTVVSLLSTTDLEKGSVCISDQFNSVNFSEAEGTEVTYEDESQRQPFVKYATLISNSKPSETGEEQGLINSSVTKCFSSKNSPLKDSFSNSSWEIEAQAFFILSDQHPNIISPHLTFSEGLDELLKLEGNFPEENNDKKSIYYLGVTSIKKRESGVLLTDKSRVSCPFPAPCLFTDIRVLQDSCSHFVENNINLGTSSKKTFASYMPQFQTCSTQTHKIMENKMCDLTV
Procedure: Please refer to FIG. 8A and FIG. 8B, which are views showing interaction between a leptin receptor and a progesterone receptor through immunoprecipitation and immunofluorescent staining. As shown in the figures, for acknowledging interaction between a leptin receptor and a progesterone receptor, cellular proteins are processed through immunoprecipitation and western blotting with anti-pgR after liver cancer cells are applied with leptin only, MPA only and MPA+leptin for 30 minutes separately. […] The same results are shown through immunofluorescent staining. After the cells are processed for 10 minutes, the progesterone receptor is dyed with FITC; the leptin receptor is dyed with Texas-Red; and cell membrane is dyed with phalloidin, which are observed with fluoresce microscope under 40×. […] Thus, it is confirmed that the leptin receptor and the progesterone receptor interact to work on the liver cancer cells.

[3] = tested on: liver cancer patients; settings: prior researches, FIG. 19B; P value 0.171; cited from earlier work

interaction of leptin receptor and progesterone receptor ([2]; 30 minutes, immunoprecipitation and western blotting with anti-pgR): interacted
SMILES: CC(=O)O[C@]1(C(C)=O)CC[C@H]2[C@@H]3C[C@H](C)C4=CC(=O)CC[C@]4(C)[C@H]3CC[C@@]21C [MPA, medroxyprogesterone acetate]
effect on survival rate of, and poisoning of, normal liver epithelial cells [1]: no obvious effect
merged level between leptin receptor and progesterone receptor ([2]; 10 minutes, immunofluorescent staining): some of the leptin receptor are merged with some of the progesterone receptor
association of patient's survival rate with MPA treatment after surgery [3]: did not find significant association
